The assay addresses ROR gamma ligand binding domain (Homo sapiens (Human), UniProt P51449). As to the kind of experiment: ROR gamma luciferase reporter assay (GAL4-ROR gamma LBD, HEK293 cells). It counts as cell-based. Conditions: 48 hours treatment, read-out: RORγ luciferase Reporter assay: IC50 (nM) (in range). As to the method:
The Ligand Binding Domain (LBD) of ROR gamma was cloned into pFN26A (BIND) hRluc-neo Flexi vector (Promega) which expresses a fusion protein comprised of a DNA binding domain of the yeast GAL4 gene, a linker segment and ROR gamma ligand binding domain. For the reporter assay 0.02×10^6 HEK293 cells were seeded per well in a 96 well plate in complete media and incubated overnight in an incubator with 5% CO2 at 37° C. before transfection. Cells were then co-transfected with pFN26A hRluc-neo Flexi vector containing the LBD of ROR gamma and pGL4.35 [luc2P/9XGAL4 UAS/Hygro] Vector (Promega) in low serum media. Post transfection and recovery, cells were treated with the test compounds for 48 hours. The assay was terminated using the Bright-Glo Luciferase assay system from Promega and the Luminescence was measured using a luminescence reader. The luminescence values were used to calculate the potency of the compounds.
For orientation: In a reporter assay the amount or activity of a reporter protein is the signal.

This is an account of results in patent US11229636B2, “Substituted tetrahydroquinolinone compounds as ROR gamma modulators” (Aurigene Discovery Technologies Limited, priority 2015, dated 2022).

As a reminder, the IC50 is the concentration needed to halve the response being measured.

Chain of ROR gamma ligand binding domain (P51449 269-508): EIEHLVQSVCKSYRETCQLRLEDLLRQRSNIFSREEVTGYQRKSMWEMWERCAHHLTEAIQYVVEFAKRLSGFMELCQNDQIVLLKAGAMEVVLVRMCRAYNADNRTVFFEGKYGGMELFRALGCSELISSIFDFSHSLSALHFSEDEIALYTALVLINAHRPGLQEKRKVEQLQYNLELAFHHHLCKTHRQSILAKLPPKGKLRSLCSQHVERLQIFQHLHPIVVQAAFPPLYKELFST

For the compound `CCS(=O)(=O)c1ccc(CC(=O)Nc2ccc3c(n2)CCC(C)(c2cc(C)nc(C)n2)C3=O)nc1` (single isomer, unassigned) [compound 123, N-(6-(2,6-dimethylpyrimidin-4-yl)-6-methyl-5-oxo-5,6,7,8-tetrahydroquinolin-2-yl)-2-(5-(ethylsulfonyl)pyridin-2-yl)acetamide], the IC50 is over 500 nM. To `Cc1cn2ccnc(C3(C)CCc4nc(NC(=O)Cc5ccc(S(C)(=O)=O)cc5)ccc4C3=O)c2n1` (centres unmarked) [Compound 59, N-(6-methyl-6-(2-methylimidazo[1,2-a]pyrazin-8-yl)-5-oxo-5,6,7,8-tetrahydroquinolin-2-yl)-2-(4-(methylsulfonyl)phenyl)acetamide] belongs over 500 nM; to `CCS(=O)(=O)c1ccc(CC(=O)Nc2cc(C)c3c(n2)CCC(C)(c2cc(C)c(OC)nn2)C3=O)cc1` (centres unmarked) [Compound 96, 2-(4-(ethylsulfonyl)phenyl)-N-(6-(6-methoxy-5-methylpyridazin-3-yl)-4,6-dimethyl-5-oxo-5,6,7,8-tetrahydroquinolin-2-yl)acetamide], 100 to 500 nM.

As to `CCS(=O)(=O)c1ccc(CC(=O)Nc2ccc3c(n2)CCC(C)(c2ccc(OC(C)C)nn2)C3=O)cc1` (centres unmarked) [Compound 57, 2-(4-(ethylsulfonyl)phenyl)-N-(6-(6-isopropoxypyridazin-3-yl)-6-methyl-5-oxo-5,6,7,8-tetrahydroquinolin-2-yl)acetamide], the IC50 is over 500 nM. To `CCS(=O)(=O)c1ccc(CC(=O)Nc2ccc3c(n2)CC(C)C(C)(c2cc(C)nc(C)n2)C3=O)cc1` (centres unmarked) [Compound 81, N-(6-(2,6-dimethylpyrimidin-4-yl)-6,7-dimethyl-5-oxo-5,6,7,8-tetrahydroquinolin-2-yl)-2-(4-(ethylsulfonyl)phenyl)acetamide] belongs under 100 nM. For `CCS(=O)(=O)c1ccc(CC(=O)Nc2ccc3c(n2)CCC(C)(c2nccn4c(C)cnc24)C3=O)cc1` (single isomer, unassigned) [compound 114, 2-(4-(ethylsulfonyl)phenyl)-N-(6-methyl-6-(3-methylimidazo[1,2-a]pyrazin-8-yl)-5-oxo-5,6,7,8-tetrahydroquinolin-2-yl)acetamide], the IC50 was over 500 nM. On to `CCS(=O)(=O)c1ccc(CC(=O)Nc2ccc3c(n2)CCC(C)(c2cc(C)nc(C(F)(F)F)n2)C3=O)cc1` (centres unmarked) [Compound 78, 2-(4-(ethylsulfonyl)phenyl)-N-(6-methyl-6-(6-methyl-2-(trifluoromethyl)-pyrimidin-4-yl)-5-oxo-5,6,7,8-tetrahydroquinolin-2-yl)acetamide], for which the IC50 lay within 100 to 500 nM. The result for `CCS(=O)(=O)c1ccc(CC(=O)Nc2ccc3c(n2)CCC(C)(c2nccn4cc(C)nc24)C3=O)c(F)c1` (centres unmarked) [Compound 58, 2-(4-(ethylsulfonyl)-2-fluorophenyl)-N-(6-methyl-6-(2-methylimidazo[1,2-a]pyrazin-8-yl)-5-oxo-5,6,7,8-tetrahydroquinolin-2-yl)acetamide] reads 100 to 500 nM; that for `CCS(=O)(=O)c1ccc(CC(=O)Nc2cc(C)c3c(n2)CCC(C)(c2cc(OC)cnn2)C3=O)cc1` (centres unmarked) [Compound 73, 2-(4-(ethylsulfonyl)phenyl)-N-(6-(5-methoxypyridazin-3-yl)-4,6-dimethyl-5-oxo-5,6,7,8-tetrahydroquinolin-2-yl)acetamide], over 500 nM; that for `CCS(=O)(=O)c1ccc(CC(=O)Nc2cc(C)c3c(n2)CCC(C)(c2ccc4nc(C)cn4n2)C3=O)cc1` (centres unmarked) [Compound 75, N-(4,6-dimethyl-6-(2-methylimidazo[1,2-b]pyridazin-6-yl)-5-oxo-5,6,7,8-tetrahydroquinolin-2-yl)-2-(4-(ethylsulfonyl)phenyl)acetamide], 100 to 500 nM. To `CCS(=O)(=O)c1ccc(CC(=O)Nc2ccc3c(n2)CCC(C)(c2nccn4c(F)cnc24)C3=O)cc1` (centres unmarked) [Compound 97, 2-(4-(ethylsulfonyl)phenyl)-N-(6-(3-fluoroimidazo[1,2-a]pyrazin-8-yl)-6-methyl-5-oxo-5,6,7,8-tetrahydroquinolin-2-yl)acetamide] belongs over 500 nM; to `CCS(=O)(=O)c1ccc(CC(=O)Nc2ccc3c(n2)CCC(C)(c2nc(C)cn4ccnc24)C3=O)cc1` (single isomer, unassigned) [compound 118, 2-(4-(ethylsulfonyl)phenyl)-N-(6-methyl-6-(6-methylimidazo[1,2-a]pyrazin-8-yl)-5-oxo-5,6,7,8-tetrahydroquinolin-2-yl)acetamide], under 100 nM.

For the compound `CCS(=O)(=O)c1ccc(CC(=O)Nc2cc(C)c3c(n2)CCC(C)(c2ccc(OC)[n+]([O-])n2)C3=O)cc1` (centres unmarked) [Compound 94, 3-(2-(2-(4-(ethylsulfonyl)phenyl)acetamido)-4,6-dimethyl-5-oxo-5,6,7,8-tetrahydroquinolin-6-yl)-6-methoxypyridazine 1-oxide], the IC50 is over 500 nM.

As to `CCS(=O)(=O)c1ccc(CC(=O)Nc2ccc3c(n2)CCC(C)(c2ncc(C)n4ccnc24)C3=O)cc1` (centres unmarked) [Compound 68, 2-(4-(ethylsulfonyl)phenyl)-N-(6-methyl-6-(5-methylimidazo[1,2-a]pyrazin-8-yl)-5-oxo-5,6,7,8-tetrahydroquinolin-2-yl)acetamide], the IC50 was in the range of 100 to 500 nM.

As to `CCS(=O)(=O)c1ccc(CC(=O)Nc2cc(C)c3c(n2)CCC(C)(c2ccc(C(F)(F)F)nn2)C3=O)cc1` (centres unmarked) [Compound 53, N-(4,6-dimethyl-5-oxo-6-(6-(trifluoromethyl)pyridazin-3-yl)-5,6,7,8-tetrahydroquinolin-2-yl)-2-(4-(ethylsulfonyl)phenyl)acetamide], the IC50 was over 500 nM.

As to `CCS(=O)(=O)c1ccc(CC(=O)Nc2ccc3c(n2)C(C)CC(C)(c2nccn4ccnc24)C3=O)cc1` (centres unmarked) [Compound 48, 2-(4-(ethylsulfonyl)phenyl)-N-(6-(imidazo[1,2-a]pyrazin-8-yl)-6,8-dimethyl-5-oxo-5,6,7,8-tetrahydroquinolin-2-yl)acetamide], the IC50 was over 500 nM. The result for `CCS(=O)(=O)c1ccc(CC(=O)Nc2ccc3c(n2)CCC(C)(c2ccc(Cl)nn2)C3=O)cc1` (centres unmarked) [Compound 93, N-(6-(6-chloropyridazin-3-yl)-6-methyl-5-oxo-5,6,7,8-tetrahydroquinolin-2-yl)-2-(4-(ethylsulfonyl)phenyl)acetamide] reads over 500 nM; that for `CCS(=O)(=O)c1ccc(CC(=O)Nc2ccc3c(n2)CCC(C)(c2cnc(C(C)C)cn2)C3=O)cc1` (centres unmarked) [Compound 60, 2-(4-(ethylsulfonyl)phenyl)-N-(6-(5-isopropylpyrazin-2-yl)-6-methyl-5-oxo-5,6,7,8-tetrahydroquinolin-2-yl)acetamide], 100 to 500 nM; that for `CCS(=O)(=O)c1ccc(CC(=O)Nc2cc(C)c3c(n2)CCC(C)(c2ccc(=O)n(C)n2)C3=O)cc1` (centres unmarked) [Compound 70, N-(4,6-dimethyl-6-(1-methyl-6-oxo-1,6-dihydropyridazin-3-yl)-5-oxo-5,6,7,8-tetrahydroquinolin-2-yl)-2-(4-(ethylsulfonyl)phenyl)acetamide], over 500 nM.

In the case of `CCS(=O)(=O)c1ccc(CC(=O)Nc2ccc3c(n2)CCC(C)(c2nccn4c(C(F)(F)F)cnc24)C3=O)cc1` (centres unmarked) [Compound 74, 2-(4-(ethylsulfonyl)phenyl)-N-(6-methyl-5-oxo-6-(3-(trifluoromethyl)-imidazo[1,2-a]pyrazin-8-yl)-5,6,7,8-tetrahydroquinolin-2-yl)acetamide], the IC50 is under 100 nM. To `CCS(=O)(=O)c1ccc(CC(=O)Nc2ccc3c(n2)CCC(C)(c2nc(C)cn4cc(C)nc24)C3=O)cc1` (centres unmarked) [Compound 51, N-(6-(2,6-dimethylimidazo[1,2-a]pyrazin-8-yl)-6-methyl-5-oxo-5,6,7,8-tetrahydroquinolin-2-yl)-2-(4-(ethylsulfonyl)phenyl)acetamide] belongs under 100 nM.

Regarding `CCS(=O)(=O)c1ccc(CC(=O)Nc2ccc3c(n2)CCC(C)(c2cc(OC)nc(C)n2)C3=O)cc1` (single isomer, unassigned) [compound 116, 2-(4-(ethylsulfonyl)phenyl)-N-(6-(6-methoxy-2-methylpyrimidin-4-yl)-6-methyl-5-oxo-5,6,7,8-tetrahydroquinolin-2-yl)acetamide], the IC50 was over 500 nM. The result for `CCS(=O)(=O)c1ccc(CC(=O)Nc2cc(C)c3c(n2)CCC(C)(c2ccc(N(C)C)nn2)C3=O)cc1` (centres unmarked) [Compound 98, N-(6-(6-(dimethylamino)pyridazin-3-yl)-4,6-dimethyl-5-oxo-5,6,7,8-tetrahydroquinolin-2-yl)-2-(4-(ethylsulfonyl)phenyl)acetamide] reads 100 to 500 nM; that for `CCS(=O)(=O)c1ccc(CC(=O)Nc2ccc3c(n2)CCC(C)(c2nccn4c(C5CC5)cnc24)C3=O)cc1` (centres unmarked) [Compound 71, N-(6-(3-cyclopropylimidazo[1,2-a]pyrazin-8-yl)-6-methyl-5-oxo-5,6,7,8-tetrahydroquinolin-2-yl)-2-(4-(ethylsulfonyl)phenyl)acetamide], 100 to 500 nM; that for `CCS(=O)(=O)c1ccc(CC(=O)Nc2ccc3c(n2)CCC(C)(c2cc(C(F)(F)F)nc(C)n2)C3=O)cc1` (centres unmarked) [Compound 67, 2-(4-(ethylsulfonyl)phenyl)-N-(6-methyl-6-(2-methyl-6-(trifluoromethyl)-pyrimidin-4-yl)-5-oxo-5,6,7,8-tetrahydroquinolin-2-yl)acetamide], over 500 nM.

For `CCS(=O)(=O)c1ccc(CC(=O)Nc2cc(C)c3c(n2)CCC(C)(c2ccc4nccn4n2)C3=O)cc1` (centres unmarked) [Compound 77, 2-(4-(ethylsulfonyl)phenyl)-N-(6-(imidazo[1,2-b]pyridazin-6-yl)-4,6-dimethyl-5-oxo-5,6,7,8-tetrahydroquinolin-2-yl)acetamide], the IC50 is 100 to 500 nM.
